Measured values reported in article PMC11183015, “In vivo stable ^211At-labeled prostate-specific membrane antigen-targeted tracer using a neopentyl glycol structure” (EJNMMI Radiopharmacy and Chemistry, 2024).
Each block holds one compound with its values, some of them ahead of it.

Tests used:
PSMA = PSMA (Homo sapiens, UniProt Q04609); test: Competitive inhibition of [125I]DCIT binding to LNCaP cells; set-up: endogenous in cells; host or cells: LNCaP (human prostate cancer cell line, RIKEN BRC); conditions: competitor [125I]DCIT, 37 °C, 1 h
Chain of PSMA (Q04609 whole entry): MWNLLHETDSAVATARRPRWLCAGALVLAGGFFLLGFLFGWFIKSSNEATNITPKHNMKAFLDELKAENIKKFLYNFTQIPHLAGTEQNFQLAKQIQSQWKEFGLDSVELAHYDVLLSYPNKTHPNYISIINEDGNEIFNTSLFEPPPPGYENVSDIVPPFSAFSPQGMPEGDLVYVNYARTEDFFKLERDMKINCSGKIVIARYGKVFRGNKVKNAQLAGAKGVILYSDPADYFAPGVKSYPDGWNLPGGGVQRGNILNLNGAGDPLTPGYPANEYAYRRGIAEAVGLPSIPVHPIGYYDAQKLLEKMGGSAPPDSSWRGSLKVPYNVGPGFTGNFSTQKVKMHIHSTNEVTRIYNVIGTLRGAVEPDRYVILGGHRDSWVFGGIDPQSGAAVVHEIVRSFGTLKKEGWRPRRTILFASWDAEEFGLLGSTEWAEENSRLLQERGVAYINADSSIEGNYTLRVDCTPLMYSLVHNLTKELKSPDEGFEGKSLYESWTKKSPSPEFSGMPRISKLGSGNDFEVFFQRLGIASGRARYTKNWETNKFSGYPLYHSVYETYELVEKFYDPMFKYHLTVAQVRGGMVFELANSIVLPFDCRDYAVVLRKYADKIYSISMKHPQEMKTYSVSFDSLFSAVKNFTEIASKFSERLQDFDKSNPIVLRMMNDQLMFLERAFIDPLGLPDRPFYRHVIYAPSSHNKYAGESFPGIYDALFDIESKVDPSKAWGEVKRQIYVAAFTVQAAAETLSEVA
Method: The human prostate cancer cell line LNCaP was provided by RIKEN BioResource Center (BRC) through the National BioResource Project of MEXT/AMED, Japan. LNCaP cells were cultured according to protocols prescribed by RIKEN BRC. LNCaP cells were seeded in 24-well plates (~ 1.5 × 10^5 cells/500 µL/well) coated with 0.01% poly-L-lysine (Sigma-Aldrich, Tokyo). After washing twice with assay medium (RPMI 1640 supplemented with 0.5% BSA), 250 µL of assay medium was added to each well. Each PSMA derivative and [^125I]DCIT dissolved in assay medium (250 µL) were added to the well, and the plates were then incubated at 37 °C for 1 h. After removing the assay medium, the cells were washed twice with assay medium (250 µL × 2). All cells were lysed with 1 M NaOH (500 µL), and the solution was collected. The cells were washed twice with PBS (250 µL × 2), and the solution was mixed with the previous solution. The radioactivity in the solution was measured using an auto-well gamma counter. The IC50 value was calculated by fitting with nonlinear regression using GraphPad Prism 8.4.3 (GraphPad Software, Inc., San Diego).

[1] = Biodistribution of radioactivity in normal mice; format: in vivo, mouse; conditions: normal ddY mice, i.v.
Method: Six-week-old male ddY mice were injected via the tail vein with each radiolabeled PSMA derivative. Animals were sacrificed and the organs were dissected at 10 min, 1 h, 3 h, and 6 h after injection. Metabolic cages were used for housing normal mice. The tissues of interest were excised and weighed, and the radioactivity counts in each tissue were determined using an auto-well gamma counter. Each value was expressed as the mean percent injected dose/g tissue ± SD for a group of 3–5 animals, except those for the stomach, intestine, and thyroid.

LNCaP cell xenografts = test: Biodistribution of radioactivity in tumor-bearing mice; format: in vivo, mouse; conditions: LNCaP tumor-bearing BALB/c-nu/nu mice
Method: Animal studies were conducted in accordance with the institutional guidelines approved by the Chiba University Animal Care Committee (Permit No. 4–183). Five-week-old male ddY mice and BALB/c-nu/nu mice were purchased from Japan SLC Inc. (Hamamatsu, Japan). LNCaP cells (5.0 × 10^6 cells) were suspended in 100 μL of PBS and Matrigel (BD Biosciences, Franklin Lakes, NJ, USA) in a 1:1 ratio. Tumor xenograft models were prepared via subcutaneous injection of this LNCaP cell suspension into BALB/c nude mice.
Biodistribution studies were conducted using male BALB/c-nu/nu mice bearing LNCaP cell xenografts at 1 and 3 h postinjection of [^211At]At-NpG-D-PSMA (100 µL, 37 kBq) and 1 and 6 h postinjection of ^125I-labeled PSMA derivative (100 µL, 11.1 kBq). In the blocking study, [^125I]I-NpG-D-PSMA was coinjected with 2-PMPA (50 mg/kg weight) into tumor-bearing mice via the tail vein. At 1 h postinjection, the mice were sacrificed. The tissues of interest were excised and weighed, and the radioactivity counts in each tissue were determined using an auto-well gamma counter. Each value was expressed as the mean percent injected dose/g tissue ± SD for a group of 3–5 animals, except those for the stomach, intestine, and thyroid.

IC50 (PSMA): 4.04 nM
SMILES: O=C(O)CCC(NC(=O)NC(CCCCNC(=O)C(Cc1ccc2ccccc2c1)NC(=O)C(CCC(=O)O)NC(=O)C(CCC(=O)O)NC(=O)COCC(CO)(CO)CI)C(=O)O)C(=O)O [I-NpG-L-PSMA]

Radioactivity in Blood ([1]; 10 min): 3.84 ± 0.55 %ID/g
Radioactivity in Bone ([1]; 10 min): 1.54 ± 0.19 %ID/g
Radioactivity in Heart ([1]; 10 min): 1.51 ± 0.13 %ID/g
Radioactivity in Intestine ([1]; 10 min): 1.58 ± 0.17 %ID
Radioactivity in Kidney ([1]; 10 min): 82.9 ± 12.2 %ID/g
Radioactivity in Liver ([1]; 10 min): 0.98 ± 0.13 %ID/g
Radioactivity in Lung ([1]; 10 min): 3.52 ± 0.29 %ID/g
Radioactivity in Muscle ([1]; 10 min): 1.34 ± 0.18 %ID/g
Radioactivity in Neck ([1]; 10 min): 0.03 ± 0.01 %ID
Radioactivity in Pancreas ([1]; 10 min): 1.20 ± 0.22 %ID/g
Radioactivity in Spleen ([1]; 10 min): 1.76 ± 0.68 %ID/g
Radioactivity in Stomach ([1]; 10 min): 0.32 ± 0.03 %ID
Radioactivity in Blood ([1]; 1 h): 0.26 ±0.15 %ID/g
Radioactivity in Bone ([1]; 1 h): 0.20 ± 0.09 %ID/g
Radioactivity in Intestine ([1]; 1 h): 0.83 ± 0.25 %ID
Radioactivity in Kidney ([1]; 1 h): 11.1 ± 3.22 %ID/g
Radioactivity in Liver ([1]; 1 h): 0.15 ± 0.03 %ID/g
Radioactivity in Lung ([1]; 1 h): 0.26 ± 0.12 %ID/g
Radioactivity in Muscle ([1]; 1 h): 0.15 ± 0.07 %ID/g
Radioactivity in Neck ([1]; 1 h): 0.01 ± 0.01 %ID
Radioactivity in Pancreas ([1]; 1 h): 0.11 ± 0.04 %ID/g
Radioactivity in Spleen ([1]; 1 h): 0.12 ± 0.08 %ID/g
Radioactivity in Stomach ([1]; 1 h): 0.57 ± 0.31 %ID
Radioactivity in Heart ([1]; 3 h): 0.02 ± 0.03 %ID/g
Radioactivity in Intestine ([1]; 3 h): 0.21 ± 0.09 %ID
Radioactivity in Kidney ([1]; 3 h): 1.12 ± 0.34 %ID/g
Radioactivity in Liver ([1]; 3 h): 0.06 ± 0.00 %ID/g
Radioactivity in Lung ([1]; 3 h): 0.03 ± 0.02 %ID/g
Radioactivity in Muscle ([1]; 3 h): 0.02 ± 0.02 %ID/g
Radioactivity in Neck ([1]; 3 h): 0.00 ± 0.00 %ID
Radioactivity in Stomach ([1]; 3 h): 0.03 ± 0.02 %ID
Radioactivity in Intestine ([1]; 6 h): 0.34 ± 0.17 %ID
Radioactivity in Kidney ([1]; 6 h): 1.06 ± 0.42 %ID/g
Radioactivity in Liver ([1]; 6 h): 0.05 ±0.01 %ID/g
Radioactivity in Lung ([1]; 6 h): 0.02 ± 0.02 %ID/g
Radioactivity in Muscle ([1]; 6 h): 0.02 ± 0.02 %ID/g
Radioactivity in Neck ([1]; 6 h): 0.00 ± 0.00 %ID
Radioactivity in Stomach ([1]; 6 h): 0.05 ± 0.03 %ID
Radioactivity in Feces ([1]; 6 h, metabolic cages): 0.19 ± 0.12 %ID
Radioactivity in Urine ([1]; 6 h, metabolic cages): 66.7 ± 15.8 %ID
SMILES: O=C([O-])CN1CCN(CC(=O)[O-])CCN(CC(=O)NC[C@H]2CC[C@H](C(=O)N[C@@H](Cc3ccc4ccccc4c3)C(=O)NCCCC[C@H](NC(=O)N[C@@H](CCC(=O)O)C(=O)O)C(=O)O)CC2)CCN(CC(=O)[O-])CC1.[67Ga+3] [[^67Ga]Ga-PSMA-617, reference compound]

Radioactivity in Blood (LNCaP cell xenografts; 1 h): 0.41 ± 0.10 %ID/g
Radioactivity in Bone (LNCaP cell xenografts; 1 h): 0.40 ± 0.22 %ID/g
Radioactivity in Heart (LNCaP cell xenografts; 1 h): 0.65 ± 0.22 %ID/g
Radioactivity in Intestine (LNCaP cell xenografts; 1 h): 1.94 ± 0.22 %ID
Radioactivity in Kidney (LNCaP cell xenografts; 1 h): 181 ± 13.5 %ID/g
Radioactivity in Liver (LNCaP cell xenografts; 1 h): 0.38 ± 0.08 %ID/g
Radioactivity in Lung (LNCaP cell xenografts; 1 h): 1.84 ± 0.22 %ID/g
Radioactivity in Muscle (LNCaP cell xenografts; 1 h): 0.30 ± 0.12 %ID/g
Radioactivity in Neck (LNCaP cell xenografts; 1 h): 0.04 ± 0.03 %ID
Radioactivity in Pancreas (LNCaP cell xenografts; 1 h): 0.95 ± 0.48 %ID/g
Radioactivity in Spleen (LNCaP cell xenografts; 1 h): 11.8 ± 1.26 %ID/g
Radioactivity in Stomach (LNCaP cell xenografts; 1 h): 0.37 ± 0.15 %ID
Radioactivity in Tumor (LNCaP cell xenografts; 1 h): 13.4 ± 3.17 %ID/g
Radioactivity in Blood (LNCaP cell xenografts; 3 h): 0.09 ± 0.02 %ID/g
Radioactivity in Bone (LNCaP cell xenografts; 3 h): 0.29 ± 0.18 %ID/g
Radioactivity in Heart (LNCaP cell xenografts; 3 h): 0.23 ± 0.08 %ID/g
Radioactivity in Intestine (LNCaP cell xenografts; 3 h): 1.74 ± 0.39 %ID
Radioactivity in Kidney (LNCaP cell xenografts; 3 h): 132 ± 37.8 %ID/g
Radioactivity in Liver (LNCaP cell xenografts; 3 h): 0.11 ± 0.04 %ID/g
Radioactivity in Lung (LNCaP cell xenografts; 3 h): 0.55 ± 0.06 %ID/g
Radioactivity in Muscle (LNCaP cell xenografts; 3 h): 0.13 ± 0.09 %ID/g
Radioactivity in Neck (LNCaP cell xenografts; 3 h): 0.05 ± 0.04 %ID
Radioactivity in Pancreas (LNCaP cell xenografts; 3 h): 0.27 ± 0.05 %ID/g
Radioactivity in Spleen (LNCaP cell xenografts; 3 h): 4.67 ± 3.27 %ID/g
Radioactivity in Stomach (LNCaP cell xenografts; 3 h): 0.55 ± 0.33 %ID
Radioactivity in Tumor (LNCaP cell xenografts; 3 h): 16.9 ± 8.45 %ID/g
SMILES: O=C(O)CCC(NC(=O)NC(CCCCNC(=O)C(Cc1ccc2ccccc2c1)NC(=O)C(CCC(=O)O)NC(=O)C(CCC(=O)O)NC(=O)COCC(CO)(CO)C[211At])C(=O)O)C(=O)O [[^211At]At-NpG-D-PSMA]

The next lines start with the compound.

SMILES: O=C([O-])CN1CCN(CC(=O)[O-])CCN(CC(=O)NC[C@H]2CC[C@H](C(=O)N[C@@H](Cc3ccc4ccccc4c3)C(=O)NCCCC[C@H](NC(=O)N[C@@H](CCC(=O)O)C(=O)O)C(=O)O)CC2)CCN(CC(=O)[O-])CC1.[Ga+3] [Ga-PSMA-617, reference compound]
IC50 (PSMA): 7.56 nM

SMILES: O=C(O)CCC(NC(=O)NC(CCCCNC(=O)C(Cc1ccc2ccccc2c1)NC(=O)C(CCC(=O)O)NC(=O)C(CCC(=O)O)NC(=O)COCC(CO)(CO)CI)C(=O)O)C(=O)O [I-NpG-D-PSMA]
IC50 (PSMA): 6.06 nM
